Assays:
Assay type in all cases: functional
Onchocerca lienalis [1] = experiment: MMV: Percent motility assay at a compound concentration of 1.25e-5 M. Activity score legend: 3: Active, 2: Moderately active; 1: Inactive, 0: Toxic; conditions: at 12.5 µM
Onchocerca lienalis [2] = experiment: MMV: Percent motility assay at a compound concentration of 3.1e-6 M. Activity score legend: 3: Active, 2: Moderately active; 1: Inactive, 0: Toxic; conditions: at 3.1 µM
Onchocerca lienalis [3] = experiment: MMV: Percent motility assay at a compound concentration of 1.9e-7 M. Activity score legend: 3: Active, 2: Moderately active; 1: Inactive, 0: Toxic; conditions: at 0.19 µM
Onchocerca lienalis [4] = experiment: MMV: Percent motility assay at a compound concentration of 7.8e-7 M. Activity score legend: 3: Active, 2: Moderately active; 1: Inactive, 0: Toxic; conditions: at 0.78 µM

SMILES | Motility (Onchocerca lienalis [1]) [%] | Motility (Onchocerca lienalis [2]) [%] | Motility (Onchocerca lienalis [3]) [%] | Motility (Onchocerca lienalis [4]) [%]
CN1CCN(c2ccc(Nc3c4ccccc4nc4ccccc34)cc2)CC1 | 100 | 100 | 100 | 100
CCN1CCCC1CNc1[nH]cnc2c3cc(Cl)ccc3nc1-2 (centres undefined) | 100 | 100 | 100 | 100
C[n+]1c2ccccc2nc2ccc(NCCO)cc21 | 100 | 100 | 100 | 100
CCN(CC)CCNc1ncnc2c1[nH]c1ccc(Cl)cc12 | 100 | 100 | 100 | 100
CCOC(=O)c1cnc2ccc(CC)cc2c1O | 100 | 100 | 100 | 100
Cc1ccc(-c2cc3c(nn2)-c2ccccc2C3=O)cc1 | 100 | 100 | 100 | 100
CCN(CC)CCNc1ccnc2cc(Cl)ccc12 | 100 | 100 | 100 | 100
Cc1ccc(Nc2nc(-c3ccccn3)cs2)cc1 | 100 | 100 | 100 | 100
Cc1cc(Nc2ccc3ccccc3c2)n2ncnc2n1 | 100 | 100 | 100 | 100
COc1ccc(-n2ccnc2SCC(=O)Nc2cc(C)ccc2C)c(OC)c1 | 100 | 100 | 100 | 100
CCN1CCN(Cc2ccc(NC(=O)c3cc4ccc5cccnc5c4[nH]3)cc2)CC1 | 100 | 100 | 100 | 100
CCC(c1ccccc1)c1nn2c(-c3cccs3)nnc2s1 (centres undefined) | 100 | 100 | 100 | 100
CCOc1cc2c(cc1OCC)C(c1cc(OC)c(O)cc1Cl)NCC2 (centres undefined) | 100 | 100 | 100 | 100
CC1CN(C(=O)c2sc3ccccc3c2Cl)CC(C)O1 (centres undefined) | 100 | 100 | 100 | 100
CN(C)c1ccc(C=Cc2nc(=O)c3ccccc3o2)cc1 | 100 | 100 | 100 | 100
CCOC(=O)c1c(NC(=O)c2ccccc2)sc2c(O)c(CN(CC)CC)ccc12 | 100 | 100 | 100 | 100
OC(CNC1CCCCC1)Cn1c2ccccc2c2ccccc21 (centres undefined) | 60 | 100 | 100 | 100
COc1cccc(C=Cc2nc(=O)c3ccccc3o2)c1OC | 100 | 100 | 100 | 100
CCCN(CCC)CC(O)COc1ccccc1C(=O)Nc1ccccc1 (centres undefined) | 100 | 100 | 100 | 100
COc1ccc(C(=O)Nc2nonc2-c2ccc(OC)c(OC)c2)cc1Cl | 100 | 100 | 100 | 100
COc1ccc(NC(=O)C2c3ccccc3C(=O)N(CC(C)C)C2c2cccs2)cc1Cl (centres undefined) | 100 | 100 | 100 | 100

SMILES | Motility (Onchocerca lienalis [1]) [%] | Motility (Onchocerca lienalis [2]) [%] | Motility (Onchocerca lienalis [3]) [%] | Motility (Onchocerca lienalis [4]) [%]
CCOC(=O)c1c(C)n(-c2ccc(Cl)cc2)c2ccc(OC(=O)C=Cc3ccccc3)cc12 | 100 | 100 | 100 | 100
COc1ccc2c(c1)OC(O)(C(F)(F)C(F)(F)F)CC2=O (centres undefined) | 100 | 100 | 100 | 100
CCOc1cc(Cl)c(C(C)NC(=O)c2ccccc2)cc1OCC (centres undefined) | 100 | 100 | 100 | 100
C=CC12CCN(CC1)C(C(O)c1ccnc3ccc(OC)cc13)C2.Cl (centres undefined) | 100 | 100 | 100 | 100
Cc1ccc(-c2cc3nc4c(c(O)n3n2)CCCC4)cc1 | 100 | 100 | 100 | 100
c1ccc2cc3c(Nc4ccc(N5CCOCC5)cc4)ccnc3cc2c1 | 100 | 100 | 100 | 100
Cc1cc(C)c2c(c1)OCN(Cc1ccccc1Cl)C2 | 100 | 100 | 100 | 100
COc1ccccc1NC1=C(N2CCCCC2)C(=O)c2ccccc2C1=O | 100 | 100 | 100 | 100
CCOC(=O)c1cn(CC)c2cc(N3CCCCC3)c(F)cc2c1=O | 100 | 100 | 100 | 100
CCCc1cc(O)c2c3c(c(=O)oc2c1)CN(C)CC3 | 66.6 | 100 | 100 | 100
Cc1cc(NC(=O)C2c3ccccc3C(=O)N(CC(C)C)C2c2cccs2)no1 (centres undefined) | 100 | 100 | 100 | 100
CCOc1ccc(-c2nonc2NC(=O)c2cccc(C)c2)cc1OCC | 100 | 100 | 100 | 100
COc1ccc(-c2nc3cc(Cc4ccc5[nH]c(-c6ccc(OC)cc6)nc5c4)ccc3[nH]2)cc1 | 80 | 100 | 100 | 100
CCOC(=O)c1ccc2nc(-c3ccccc3)cc(O)c2c1 | 100 | 100 | 100 | 100
Cc1cc(Nc2ccc(Cl)cc2)n2nc(C(F)(F)F)nc2n1 | 100 | 100 | 100 | 100
CCCCCCOC(=O)C1=C(C)NC(=O)NC1c1ccccc1F (centres undefined) | 6 | 100 | 100 | 100
Cc1ccc(N2C3c4ccccc4N(S(=O)(=O)c4ccc(C)cc4)C2c2ccccc2N3S(=O)(=O)c2ccc(C)cc2)cc1 | 100 | 100 | 100 | 100
Cc1ccc(Nc2nc(NCCO)c3ccccc3n2)cc1C | 33.33 | 100 | 100 | 100
COc1ccc(NC(=O)C2c3ccccc3C(=O)N(CC(C)C)C2c2cccs2)cc1 (centres undefined) | 100 | 100 | 100 | 100
c1ccc(Cn2c(N=Nc3c(Nc4ccccc4)ccc4ccccc34)nc3ccccc32)cc1 | 100 | 100 | 100 | 100
